Measured values as given in US20230310334A1, “LIPID NANOPARTICLE” (SHENZHEN SHENXIN BIOTECHNOLOGY CO., LTD., priority 2020, published 2023).

Test system: luciferase mRNA (Fluc mRNA) expression
Assay: Luciferase mRNA delivery performance in vivo of lipid nanoparticles prepared from amino lipid compounds (IVIS imaging)
Parameters: species or system BALB/c mice
Settings: for Average fluorescence intensity (intramuscular) / Average fluorescence intensity (subcutaneous) / Average fluorescence intensity (tail vein): Fluc mRNA LNP, 0.5 mg/kg, imaging 6 hours after injection, male BALB/c mice; for Average fluorescence intensity (intramuscular) / Average fluorescence intensity (subcutaneous): preparation process I (DOPE); for Average fluorescence intensity (tail vein): preparation process II (DSPC); for delivery capacity after introduction of the alkynyl group: in vivo delivery, compared with corresponding amino lipid compounds without alkynyl group (36, 37)
Procedure: Example 40: Evaluation of Luciferase mRNA Delivery Performance In Vivo of Lipid Nanoparticles Prepared from Amino Lipid Compounds
Preparation of lipid nanoparticles:
Preparation process I: The amino lipid compound described in the present invention and DOPE, cholesterol, PEG2000-DMG were mixed and dissolved in absolute ethanol in a molar ratio of 45:10:42.5:2.5. Two microinjection pumps were used, and the ratio of ethanol solution to sodium acetate solution (50 mM, pH=4.0) was controlled to be 1:3. A crude solution of lipid nanoparticles was prepared in a micro flow channel chip, then dialyzed for 6 hours with 1×PBS at a controlled temperature of 4° C. by using a dialysis cassette (Fisher, MWCO 20,000), and filtered with a 0.22 μm microporous filter membrane before use. The mass ratio of the amino lipid compound to luciferase mRNA (Fluc mRNA) was about 10:1. The administration route included subcutaneous and intramuscular injections.
Preparation process II: the molar ratio of amino lipid compound to DSPC, cholesterol, PEG2000-DMG was 50:10:38.5:1.5, and the preparation process was identical to the preparation process I. The administration route was tail vein administration.
Animal preparation: 6-week-old male BALB/c mice with body weights of about 20 g were selected, and fed in an SPF-grade feeding room. Animal experiments were strictly carried out according to the guidelines of the national health institution and the requirements of animal ethics. In vivo delivery: 9 mice were randomly selected per group and injected with lipid nanoparticles at a dose of 0.5 mg/kg by three administration routes: subcutaneous, intramuscular, and tail vein, respectively (three animals per administration route). After 6 hours, […] of 10 mg/mL potassium […] was injected into each mouse via the tail vein, and after 10 minutes, the mice were placed under an in vivo imaging system (IVIS-200, Xenogen), and the total fluorescence intensity of each mouse was observed and recorded by photographing. The expression intensities of Fluc mRNA delivered by the three administration routes of representative amino lipid compounds were shown in Tables 1-3. DLin-MC3 was used as a control.

CCCC#CCCCOC(=O)CCCCCCCN(CCCO)CCCCCCCC(=O)OC(CCCCCCCC)CCCCCCCC [Compound 8]
Average fluorescence intensity (intramuscular): 2.1E+07
Average fluorescence intensity (subcutaneous): 7.1E+06
Average fluorescence intensity (tail vein): 6.1E+06

CCCCCC#CCOC(=O)CCCCCCCN(CCO)CCCCCCCC(=O)OC(CCCCCCCC)CCCCCCCC [Compound 12]
Average fluorescence intensity (intramuscular): 2.1E+06
Average fluorescence intensity (subcutaneous): 3.2E+07

CCCCCC#CCCCOC(=O)CCCCCCCN(CCCCCCCC(=O)OC(CCCCCCCC)CCCCCCCC)C1CCC(O)CC1 (stereo not drawn) [Compound 21]
Average fluorescence intensity (intramuscular): 1.1E+07
Average fluorescence intensity (subcutaneous): 4.1E+06

CCCCCCC#CCCCOC(=O)CCCCCCCN(CCCO)CCCCCCCC(=O)OC(CCCCCCCC)CCCCCCCC [Compound 11]
Average fluorescence intensity (intramuscular): 2.1E+06
Average fluorescence intensity (subcutaneous): 2.1E+05
Average fluorescence intensity (tail vein): 5.1E+07

CCCCCCC#CCCOC(=O)CCCCCCCN(CCO)CCCCCCCC(=O)OC(CCCCCCCC)CCCCCCCC [Compound 14]
Average fluorescence intensity (intramuscular): 4.1E+06
Average fluorescence intensity (subcutaneous): 2.1E+06
Average fluorescence intensity (tail vein): 1.1E+07

CCCCCCC#CCCOC(=O)CCCCCCCN(CCCO)CCCCCCCC(=O)OC(CCCCCCCC)CCCCCCCC [Compound 7]
Average fluorescence intensity (intramuscular): 4.1E+05
Average fluorescence intensity (subcutaneous): 2.1E+05
Average fluorescence intensity (tail vein): 8.1E+06

CCCC#CCCCOC(=O)CCCCCCCN(CCCCCCCC(=O)OC(CCCCCCCC)CCCCCCCC)CCCN1CCOCC1 [Compound 32]
Average fluorescence intensity (intramuscular): 2.8E+07
Average fluorescence intensity (subcutaneous): 7.1E+05

CCCCC#CCCOC(=O)CCCCCCCN(CCCO)CCCCCCCC(=O)OC(CCCCCCCC)CCCCCCCC [Compound 5]
Average fluorescence intensity (subcutaneous): 7.1E+06

CCCCC/C=C\C/C=C\CCCCCCCCC(CCCCCCCC/C=C\C/C=C\CCCCC)OC(=O)CCCN(C)C [Compound 35, (6Z,9Z,28Z,31Z)-heptatriacont-6,9,28,31-tetraene-19-yl 4-(N,N-dimethylamino)butanoate, reference compound]
Average fluorescence intensity (intramuscular): 3.9E+03
Average fluorescence intensity (subcutaneous): 4.1E+04
Average fluorescence intensity (tail vein): 6.2E+06

CCCCC#CCOC(=O)CCCCCCCN(CCCO)CCCCCCCC(=O)OC(CCCCCCCC)CCCCCCCC [Compound 1]
Average fluorescence intensity (subcutaneous): 1.4E+07

CCCCC#CCCCOC(=O)CCCCCCCCCN(CCCCO)CCCCCCCC(=O)OC(CCCCCCCC)CCCCCCCC [Compound 23]
Average fluorescence intensity (intramuscular): 2.7E+05
Average fluorescence intensity (tail vein): 6.1E+07

CCCCCC#CCCOC(=O)CCCCCCCN(CCCCO)CCCCCCCC(=O)OC(CCCCCCCC)CCCCCCCC [Compound 16]
Average fluorescence intensity (intramuscular): 1.4E+07
Average fluorescence intensity (subcutaneous): 2.7E+06

CCCCC#CCCCOC(=O)CCCCCCCN(CCCCO)CCCCCCCC(=O)OC(CCCCCCCC)CCCCCCCC [Compound 17]
Average fluorescence intensity (intramuscular): 2.7E+06
Average fluorescence intensity (subcutaneous): 2.5E+06
Average fluorescence intensity (tail vein): 5.1E+07
delivery capacity after introduction of the alkynyl group: significantly enhanced

CCCCC#CCCCOC(=O)CCCCN(CCCCO)CCCCCCCC(=O)OC(CCCCCCCC)CCCCCCCC [Compound 22]
Average fluorescence intensity (intramuscular): 3.1E+05
Average fluorescence intensity (subcutaneous): 2.8E+07

CCCCC#CCCCOC(=O)CCCCCCCN(CCCCCCCC(=O)OC(CCCCCCCC)CCCCCCCC)CCCNC(=O)CCCCC [Compound 34]
Average fluorescence intensity (intramuscular): 4.8E+06
Average fluorescence intensity (subcutaneous): 5.3E+05

CCCC#CCCCOC(=O)CCCCCCCN(CCCC#N)CCCCCCCC(=O)OC(CCCCCCCC)CCCCCCCC [Compound 30]
Average fluorescence intensity (intramuscular): 1.1E+07
Average fluorescence intensity (subcutaneous): 7.1E+06

CCCCCC#CCCCOC(=O)CCCCCCCN(CCCO)CCCCCCCC(=O)OC(CCCCCCCC)CCCCCCCC [Compound 10]
Average fluorescence intensity (intramuscular): 2.1E+05
Average fluorescence intensity (subcutaneous): 3.1E+05
Average fluorescence intensity (tail vein): 2.5E+07

CCCCC#CCCCOC(=O)CCCCCCCN(CCCCCCCC(=O)OC(CCCCCCCC)CCCCCCCC)C1CC(O)C1 (stereo not drawn) [Compound 18]
Average fluorescence intensity (tail vein): 7.1E+07

CCCCCC#CCCOC(=O)CCCCCCCN(CCCO)CCCCCCCC(=O)OC(CCCCCCCC)CCCCCCCC [Compound 6]
Average fluorescence intensity (intramuscular): 2.1E+05
Average fluorescence intensity (subcutaneous): 2.1E+06

CCCCCC#CCCCOC(=O)CCCCCCCN(CCCCCCCC(=O)OC(CCCCCC)CCCCCCCC)C1CCC(O)C1 (stereo not drawn) [Compound 20]
Average fluorescence intensity (intramuscular): 5.2E+05
Average fluorescence intensity (subcutaneous): 3.7E+07

CCCCCCCCCC#CC(=O)OCCCCCCCN(CCCO)CCCCCCCOC(=O)C(CCCCCC)CCCCCCCC (stereo not drawn) [Compound 29]
Average fluorescence intensity (intramuscular): 1.8E+07
Average fluorescence intensity (subcutaneous): 8.1E+06

CCCCCCCC#CCOC(=O)CCCCCCCN(CCCO)CCCCCCCC(=O)OC(CCCCCCCC)CCCCCCCC [Compound 4]
Average fluorescence intensity (intramuscular): 2.1E+06
Average fluorescence intensity (subcutaneous): 2.1E+05
Average fluorescence intensity (tail vein): 2.9E+07

CCCCC#CCCCOC(=O)CCCCCCCN(CCCCCCCC(=O)OC(CCCCCCCC)CCCCCCCC)CCCOC(=O)CCCCC [Compound 33]
Average fluorescence intensity (intramuscular): 1.1E+07
Average fluorescence intensity (subcutaneous): 3.1E+06

CCCCC#CCCCOC(=O)CCCCN(CCCO)CCCCCCCC(=O)OCC(CCCCCC)CCCCCCCC (stereo not drawn) [Compound 28]
Average fluorescence intensity (intramuscular): 6.1E+07
Average fluorescence intensity (subcutaneous): 2.1E+06

CCCCCCC#CCOC(=O)CCCCCCCN(CCO)CCCCCCCC(=O)OC(CCCCCCCC)CCCCCCCC [Compound 13]
Average fluorescence intensity (intramuscular): 2.1E+06
Average fluorescence intensity (subcutaneous): 2.6E+07

CCCCC#CCCCOC(=O)CCCCCCCCCCCCCN(CCCO)CCCCCCCC(=O)OC(CCCC)CCCC [Compound 25]
Average fluorescence intensity (intramuscular): 2.1E+05
Average fluorescence intensity (subcutaneous): 2.6E+07

CCCCCCCCCOC(=O)CCCCCCCN(CCCCCCCC(=O)OC(CCCCCCCC)CCCCCCCC)CCCN(C)C [Compound 37, reference compound]
Average fluorescence intensity (intramuscular): 2.5E+06
Average fluorescence intensity (subcutaneous): 2.0E+05

CCCCC#CCCCOC(=O)CCCCCCCCCCCCCN(CCCO)CCCCCCCC(=O)OC(CCCC)CCCCCC (stereo not drawn) [Compound 26]
Average fluorescence intensity (intramuscular): 6.1E+07
Average fluorescence intensity (subcutaneous): 1.7E+06

CCCCCC#CCOC(=O)CCCCCCCN(CCCO)CCCCCCCC(=O)OC(CCCCCCCC)CCCCCCCC [Compound 2]
Average fluorescence intensity (intramuscular): 2.4E+06
Average fluorescence intensity (subcutaneous): 1.1E+07

CCCCCCC#CCOC(=O)CCCCCCCN(CCCO)CCCCCCCC(=O)OC(CCCCCCCC)CCCCCCCC [Compound 3]
Average fluorescence intensity (intramuscular): 2.1E+06
Average fluorescence intensity (subcutaneous): 2.1E+06
Average fluorescence intensity (tail vein): 2.1E+07

CCCCC#CCCCOC(=O)CCCCCCCN(CCCO)CCCCCCCC(=O)OC(CCCCCCCC)CCCCCCCC [Compound 9]
Average fluorescence intensity (intramuscular): 5.1E+06
Average fluorescence intensity (subcutaneous): 2.7E+06
Average fluorescence intensity (tail vein): 2.8E+07

CCCCCCCCCOC(=O)CCCCCCCN(CCCCO)CCCCCCCC(=O)OC(CCCCCCCC)CCCCCCCC [Compound 36, reference compound]
Average fluorescence intensity (subcutaneous): 1.1E+05
Average fluorescence intensity (tail vein): 4.2E+05

CCCCC#CCCCOC(=O)CCCCCCCCCCCCCN(CCCCO)CCCCCCCC(=O)OC(CCCCCCCC)CCCCCCCC [Compound 24]
Average fluorescence intensity (intramuscular): 2.1E+05
Average fluorescence intensity (tail vein): 7.8E+06

CCCCC#CCCCOC(=O)CCCCCCCN(CCCCCCCC(=O)OC(CCCCCCCC)CCCCCCCC)CCCN(C)C [Compound 31]
Average fluorescence intensity (intramuscular): 1.5E+07
Average fluorescence intensity (subcutaneous): 5.1E+05
delivery capacity after introduction of the alkynyl group: significantly enhanced

CCCCC#CCCOC(=O)CCCCCCCN(CCCCO)CCCCCCCC(=O)OC(CCCCCCCC)CCCCCCCC [Compound 15]
Average fluorescence intensity (intramuscular): 2.8E+07
Average fluorescence intensity (subcutaneous): 3.1E+05

CCCCCC#CCCCOC(=O)CCCCCCCN(CCCCCCCC(=O)OC(CCCCCCCC)CCCCCCCC)C1CCC(O)C1 (stereo not drawn) [Compound 19]
Average fluorescence intensity (intramuscular): 2.1E+05
Average fluorescence intensity (tail vein): 9.1E+06
